US11820755B2, “Uracil compound and use thereof” (Sumitomo Chemical Company, Limited, priority 2018, dated 2023)

Key:
[1] = tested on: barley scald fungi (Rhynchosporium secalis); assay: Titer plate growth test of barley scald fungi in potato broth medium (absorbance at 600 nm); type: cell-based; conditions: 4.7 ppm, cultured at 18° C. for 7 days
Protocol: Each 1 μL of a solution containing the compound A at a predetermined concentration in dimethylsulfoxide was dispensed into a titer plate (96 wells), and then each 150 μL of potato broth medium containing suspension of spore of wheat leaf stripe fungi (Septoria tritici) was dispensed so that the concentration of the compound A was finally 4.7 ppm. The plate was cultured at 18° C. for 4 days, thereby allowing the wheat leaf stripe fungi to undergo proliferation, and the absorbance at 600 nm of each well of the titer plate was then measured to determine a degree of growth of the wheat leaf stripe fungi. The efficacy was calculated from the determined degree of growth by the below-mentioned “Equation 1”. Efficacy (%)=100×(X−Y)/X “Equation 1” wherein • X: Degree of fungal growth in non-treated area • Y: Degree of fungal growth in treated area The “Non-treated area” represents an area where a similar treatment procedure to that of the treated area except for not using the compound A is done. […] The plate was cultured at 18° C. for 7 days, thereby allowing the barley scald fungi to undergo proliferation, and the absorbance at 600 nm of each well of the titer plate was then measured to determine a degree of growth of the barley scald fungi. The efficacy was calculated from the determined degree of growth by the below-mentioned “Equation 1”. […]

[2] = tested on: wheat leaf stripe fungi (Septoria tritici); assay: Titer plate growth test of wheat leaf stripe fungi in potato broth medium (absorbance at 600 nm); type: cell-based; conditions: cultured at 18° C. for 4 days
Protocol: Each 1 μL of a solution containing the compound A at a predetermined concentration in dimethylsulfoxide was dispensed into a titer plate (96 wells), and then each 150 μL of potato broth medium containing suspension of spore of wheat leaf stripe fungi (Septoria tritici) was dispensed so that the concentration of the compound A was finally 4.7 ppm. The plate was cultured at 18° C. for 4 days, thereby allowing the wheat leaf stripe fungi to undergo proliferation, and the absorbance at 600 nm of each well of the titer plate was then measured to determine a degree of growth of the wheat leaf stripe fungi. The efficacy was calculated from the determined degree of growth by the below-mentioned “Equation 1”. Efficacy (%)=100×(X−Y)/X “Equation 1” wherein • X: Degree of fungal growth in non-treated area • Y: Degree of fungal growth in treated area The “Non-treated area” represents an area where a similar treatment procedure to that of the treated area except for not using the compound A is done. Each 1 μL of a solution containing the compound A at a predetermined concentration in dimethylsulfoxide was dispensed into a titer plate (96 wells), and then each 150 μL of potato broth medium containing suspension of spore of wheat leaf stripe fungi was dispensed so that the concentration of the compound A was finally 1.2 ppm. The plate was cultured at 18° C. for 4 days, thereby allowing the wheat leaf stripe fungi to undergo proliferation, and the absorbance at 600 nm of each well of the titer plate was then measured to determine a degree of growth of the wheat leaf stripe fungi. The efficacy was calculated from the determined degree of growth by the below-mentioned “Equation 1”. As a result, the efficacy was 53%. The test was carried out according to Test Example 1 using the compound B instead of the compound A. As a result, the efficacy was 45%. The test was carried out according to Test Example 2 using the compound B instead of the compound A. As a result, the efficacy was 12%.

[3] = 1.2 ppm, wheat leaf stripe fungi

With `CCOc1ncccc1Oc1cc(-n2c(=O)cc(C(F)(F)F)n(C)c2=O)c(F)cc1Cl` [Compound A] the “Efficacy (%)” value [1] was 94%, the “Efficacy (%)” value [2, 3] was 53% and the “Efficacy (%)” value ([2]; 4.7 ppm, Septoria tritici) was 73%.
`COc1ncccc1Oc1cc(-n2c(=O)cc(C(F)(F)F)n(C)c2=O)c(F)cc1Cl` [Compound B] was tested, and the “Efficacy (%)” value [1] was 41%, the “Efficacy (%)” value [2, 3] was 12% and the “Efficacy (%)” value ([2]; 4.7 ppm, Septoria tritici) was 45%.
